IC50 data for 18 molecules are collected here from patent US9533987B2, “Heterocyclic derivates” (KALVISTA PHARMACEUTICALS LIMITED, priority 2013, dated 2017).

pIC50: −log10 of the molar value.

What is called IC50 is the concentration at which inhibition is half-maximal. The term pIC50 denotes the negative decadic logarithm of the IC50, by convention in mol/L.

Holding throughout (assay type): biochemical
For one experiment, the target named is Factor XIIa (Homo sapiens (Human), UniProt P00748). The experiment in a line: Determination of enzyme selectivity, Factor XIIa. The following applies: substrate at Km concentration. The procedure: Determination of Enzyme Selectivity
Factor XIIa, sequence (P00748 373-615): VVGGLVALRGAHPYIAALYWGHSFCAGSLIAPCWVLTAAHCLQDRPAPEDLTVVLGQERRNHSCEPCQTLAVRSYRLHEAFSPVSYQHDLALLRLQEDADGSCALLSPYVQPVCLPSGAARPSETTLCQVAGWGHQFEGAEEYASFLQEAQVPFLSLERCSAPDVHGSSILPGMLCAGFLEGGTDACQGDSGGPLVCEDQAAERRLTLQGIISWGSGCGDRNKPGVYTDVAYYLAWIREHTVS
Human serine protease enzymes plasmin, thrombin, trypsin, Factor Xa and Factor XIIa were assayed for enzymatic activity using an appropriate fluorogenic substrate. Protease activity was measured by monitoring the accumulation of liberated fluorescence from the substrate over 5 minutes. The linear rate of fluorescence increase per minute was expressed as percentage (%) activity. The Km for the cleavage of each substrate was determined by standard transformation of the Michaelis-Menten equation.

The target in a further experiment is Human plasma kallikrein (Homo sapiens (Human), UniProt P03952). Put plainly: Determination of the IC50 for plasma kallikrein (fluorogenic substrate H-DPro-Phe-Arg-AFC). The following applies: 37° C., read-out: IC50 (human PKaI). As to the method:
Determination of the IC50 for Plasma Kallikrein
Human plasma kallikrein (Protogen) was incubated at 37° C. with the fluorogenic substrate H-DPro-Phe-Arg-AFC and various concentrations of the test compound. Residual enzyme activity (initial rate of reaction) was determined by measuring the change in […] at 410 nm and the IC50 value for the test compound was determined.

A further experiment deals with Human KLK1 (Homo sapiens (Human), UniProt P06870). Put plainly: Determination of the IC50 for KLK1 (fluorogenic substrate H-DVal-Leu-Arg-AFC). The following applies: 37° C. As to the method:
Determination of the IC50 for KLK1
Human KLK1 (Callbiochem) was incubated at 37° C. with the fluorogenic substrate H-DVal-Leu-Arg-AFC and various concentrations of the test compound. Residual enzyme activity (initial rate of reaction) was determined by measuring the change in […] at 410 nm and the IC50 value for the test compound was determined.

Human KLK1, sequence (P06870 25-262): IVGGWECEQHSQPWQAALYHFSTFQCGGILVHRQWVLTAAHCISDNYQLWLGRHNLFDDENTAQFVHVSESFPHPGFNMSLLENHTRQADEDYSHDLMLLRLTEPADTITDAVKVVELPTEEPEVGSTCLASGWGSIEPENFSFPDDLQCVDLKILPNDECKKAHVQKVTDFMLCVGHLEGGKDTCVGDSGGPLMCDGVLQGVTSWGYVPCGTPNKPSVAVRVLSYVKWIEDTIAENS
Human plasma kallikrein, sequence (P03952 391-638): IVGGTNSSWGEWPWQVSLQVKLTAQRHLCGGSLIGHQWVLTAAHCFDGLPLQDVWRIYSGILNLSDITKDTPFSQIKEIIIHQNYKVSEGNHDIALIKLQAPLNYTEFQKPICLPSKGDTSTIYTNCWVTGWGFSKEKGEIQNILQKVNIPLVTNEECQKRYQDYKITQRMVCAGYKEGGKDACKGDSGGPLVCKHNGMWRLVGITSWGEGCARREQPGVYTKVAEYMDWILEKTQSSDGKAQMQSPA
Human plasma kallikrein, sequence (P03952 20-390 partner): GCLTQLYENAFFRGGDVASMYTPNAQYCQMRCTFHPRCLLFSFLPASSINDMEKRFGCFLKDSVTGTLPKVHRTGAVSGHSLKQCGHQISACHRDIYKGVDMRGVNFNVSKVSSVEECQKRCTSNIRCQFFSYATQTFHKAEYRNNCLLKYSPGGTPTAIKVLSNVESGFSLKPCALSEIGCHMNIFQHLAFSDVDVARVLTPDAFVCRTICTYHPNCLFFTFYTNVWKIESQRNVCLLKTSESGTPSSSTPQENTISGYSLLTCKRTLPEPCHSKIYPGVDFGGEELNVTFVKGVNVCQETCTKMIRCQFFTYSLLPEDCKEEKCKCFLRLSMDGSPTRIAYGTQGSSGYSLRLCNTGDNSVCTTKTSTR

On to “1-[4-(4-Methyl-pyrazol-1-ylmethyl)-benzyl]-3-trifluoromethyl-1H-pyrazole-4-carboxylic acid (4,6-dimethyl-1H-pyrrolo[2,3-b]pyridin-5-ylmethyl)-amide [Example 119]”, for which the IC50 against Factor XIIa was more than 4000 nM. Also, the pIC50 on Human plasma kallikrein is 7.06; at Human KLK1, less than 5.40.

As to `Cc1cc(C(=O)NCc2ccc3ccnc(N)c3c2)c(C)n1Cc1csc(-c2ccccc2)n1` [Example 2, 2,5-Dimethyl-1-(2-phenyl-thiazol-4-ylmethyl)-1H-pyrrole-3-carboxylic acid (1-amino-isoquinolin-7-ylmethyl)-amide], the IC50 on Factor XIIa is more than 10000 nM. For the same molecule, the pIC50 at Human plasma kallikrein was 5.68; on Human KLK1 it was less than 5.00.

`CCn1c(C(=O)NCc2ccc3c(N)nccc3c2)cc(C)c1Cc1ccc(Cn2ccccc2=O)cc1` [Example 6, 1-Ethyl-4-methyl-5-[4-(2-oxo-2H-pyridin-1-ylmethyl)-benzyl]-1H-pyrrole-2-carboxylic acid (1-amino-isoquinolin-6-ylmethyl)-amide] yielded a 50% inhibitory concentration (IC50) against Factor XIIa of more than 10000 nM. For the same molecule, the negative logarithm of the IC50 (pIC50) at Human plasma kallikrein and against Human KLK1 was 5.02 throughout.

Take `Cc1cnn(Cc2ccc(Cn3cc(C(=O)NCc4ccc5c(N)nccc5c4)c(C(C)C)n3)cc2)c1` [Example 13, 3-Isopropyl-1-[4-(4-methyl-pyrazol-1-ylmethyl)-benzyl]-1H-pyrazole-4-carboxylic acid (1-amino-isoquinolin-6-ylmethyl)-amide]: at Factor XIIa, the half-maximal inhibitory concentration (IC50) was more than 10000 nM. For the same molecule, the figures for the pIC50 at Human plasma kallikrein and against Human KLK1 were 8.67 and 5.29, respectively.

`Cc1cnn(Cc2ccc(Cn3cc(C(=O)NCc4ccc5c(N)nccc5c4)c(C4CCC4)n3)cc2)c1` [Example 14, 3-Cyclobutyl-1-[4-(4-methyl-pyrazol-1-ylmethyl)-benzyl]-1H-pyrazole-4-carboxylic acid (1-amino-isoquinolin-6-ylmethyl)-amide] showed a concentration for half-maximal inhibition (IC50) against Factor XIIa of more than 10000 nM. In addition, the results for the negative logarithm of the IC50 (pIC50) on Human plasma kallikrein and against Human KLK1 were 8.34 and 5.22, respectively.

As for `Cc1cnn(Cc2ccc(Cc3nc(C)c(C(=O)NCc4ccc5c(N)nccc5c4)s3)cc2)c1` [Example 18, 4-Methyl-2-[4-(4-methyl-pyrazol-1-ylmethyl)-benzyl]-thiazole-5-carboxylic acid (1-amino-isoquinolin-6-ylmethyl)-amide], the half-inhibitory concentration (IC50) at Factor XIIa was more than 10000 nM. Besides, the pIC50 at Human plasma kallikrein is 7.49; against Human KLK1 it was less than 5.00.

`Cc1cnn(Cc2ccc(Cn3cc(C(=O)NCc4cc5cc[nH]c5nc4C)cn3)cc2)c1` [Example 22, 1-[4-(4-Methyl-pyrazol-1-ylmethyl)-benzyl]-1H-pyrazole-4-carboxylic acid (6-methyl-1H-pyrrolo[2,3-b]pyridin-5-ylmethyl)-amide] gave a concentration for half-maximal inhibition (IC50) on Factor XIIa of more than 10000 nM. The results for the pIC50 on Human plasma kallikrein and against Human KLK1 were 6.88 and less than 5.00, respectively.

As to `CCn1c(C(=O)NCc2ccc3c(N)nccc3c2)cc(C)c1Cc1ccc(Cn2cc(C)cn2)cc1` [Example 28, 1-Ethyl-4-methyl-5-[4-(4-methyl-pyrazol-1-ylmethyl)-benzyl]-1H-pyrrole-2-carboxylic acid (1-amino-isoquinolin-6-ylmethyl)-amide], the IC50 against Factor XIIa is more than 10000 nM. In addition, the pIC50 on Human plasma kallikrein is 7.20; on Human KLK1 it was less than 5.00.

Regarding `CCn1c(C(=O)NCc2ccc3c(N)nccc3c2)cc(C)c1Cc1ccc(N2CCCC2)nc1` [Example 30, 1-Ethyl-4-methyl-5-(6-pyrrolidin-1-yl-pyridin-3-ylmethyl)-1H-pyrrole-2-carboxylic acid (1-amino-isoquinolin-6-ylmethyl)-amide], the concentration for half-maximal inhibition (IC50) against Factor XIIa is more than 10000 nM. The negative logarithm of the IC50 (pIC50) is 5.83 at Human plasma kallikrein and 5.24 on Human KLK1.

`Cc1cnn(Cc2ccc(Cn3cc(C(=O)NCc4ccc5c(N)nccc5c4)nn3)cc2)c1` [Example 33, 1-[4-(4-Methyl-pyrazol-1-ylmethyl)-benzyl]-1H-[1,2,3]triazole-4-carboxylic acid (1-amino-isoquinolin-6-ylmethyl)-amide] displayed an IC50 at Factor XIIa of more than 10000 nM. Further, the figures for the pIC50 at Human plasma kallikrein and against Human KLK1 were 8.55 and less than 5.00, respectively.

At Factor XIIa, `Cc1nc(C)c(N(C)Cc2ccc(Cn3cc(C(=O)NCc4ccc5c(N)nccc5c4)cn3)cc2)s1` [Example 46, 1-(4-{[(2,4-Dimethyl-thiazol-5-yl)-methyl-amino]-methyl}-benzyl)-1H-pyrazole-4-carboxylic acid (1-amino-isoquinolin-6-ylmethyl)-amide] yielded an IC50 of more than 40000 nM.

As for `O=C(NCc1cnc2[nH]ccc2c1)c1cn(Cc2ccc(N3CCCC3)nc2)nc1C(F)(F)F` [Example 114, 1-(6-Pyrrolidin-1-yl-pyridin-3-ylmethyl)-3-trifluoromethyl-1H-pyrazole-4-carboxylic acid (1H-pyrrolo[2,3-b]pyridin-5-ylmethyl)-amide], the pIC50 at Human plasma kallikrein is 6.52; on Human KLK1, 5.92.

Take `Cc1cnn(Cc2ccc(Cn3cc(C(=O)NCc4cnc5[nH]ccc5c4)c(C(F)(F)F)n3)cc2)c1` [Example 121, 1-[4-(4-Methyl-pyrazol-1-ylmethyl)-benzyl]-3-trifluoromethyl-1H-pyrazole-4-carboxylic acid (1H-pyrrolo[2,3-b]pyridin-5-ylmethyl)-amide]: the negative logarithm of the IC50 (pIC50) was 7.21 on Human plasma kallikrein and less than 5.00 on Human KLK1.

With `Cc1cnn(Cc2ccc(Cn3cc(C(=O)NCc4c(C)nc5[nH]ccc5c4C)c(C4CC4)n3)cc2)c1` [Example 122, 3-Cyclopropyl-1-[4-(4-methyl-pyrazol-1-ylmethyl)-benzyl]-1H-pyrazole-4-carboxylic acid (4,6-dimethyl-1H-pyrrolo[2,3-b]pyridin-5-ylmethyl)-amide], the results for the pIC50 at Human plasma kallikrein and against Human KLK1 were 7.00 and less than 5.00, respectively.

In the case of `Cc1cnn(Cc2ccc(Cn3cc(C(=O)NCc4ccnc5[nH]ccc45)c(C(F)(F)F)n3)cc2)c1` [Example 125, 1-[4-(4-Methyl-pyrazol-1-ylmethyl)-benzyl]-3-trifluoromethyl-1H-pyrazole-4-carboxylic acid (1H-pyrrolo[2,3-b]pyridin-4-ylmethyl)-amide], the negative logarithm of the IC50 (pIC50) on Human plasma kallikrein was 5.40; against Human KLK1 it was less than 5.00.

Turning to `Cc1cnn(Cc2ccc(Cn3cc(C(=O)NCc4n[nH]c5ccc(Cl)cc45)c(C(F)(F)F)n3)cc2)c1` [Example 127, 1-[4-(4-Methyl-pyrazol-1-ylmethyl)-benzyl]-3-trifluoromethyl-1H-pyrazole-4-carboxylic acid (5-chloro-1H-indazol-3-ylmethyl)-amide], the results for the pIC50 on Human plasma kallikrein and at Human KLK1 were 6.27 and less than 5.00, respectively.

Turning to `O=C(NCc1n[nH]c2ccc(Cl)cc12)c1cn(Cc2ccc(N3CCCC3)nc2)nc1C(F)(F)F` [Example 128, 1-(6-Pyrrolidin-1-yl-pyridin-3-ylmethyl)-3-trifluoromethyl-1H-pyrazole-4-carboxylic acid (5-chloro-1H-indazol-3-ylmethyl)-amide], the negative logarithm of the IC50 (pIC50) is 7.60 on Human plasma kallikrein and less than 5.00 on Human KLK1.

Take `O=C(NCc1n[nH]c2ccc(Cl)cc12)c1cn(Cc2ccc(Cn3ccccc3=O)cc2)nc1C(F)(F)F` [Example 129, 1-[4-(2-Oxo-2H-pyridin-1-ylmethyl)-benzyl]-3-trifluoromethyl-1H-pyrazole-4-carboxylic acid (5-chloro-1H-indazol-3-ylmethyl)-amide]: the pIC50 on Human plasma kallikrein was 8.67; against Human KLK1, less than 5.00.
